Data taken from patent US20100323890A1, “METHOD FOR IMPROVING THE RESISTANCE OF PLANTS TO STRESS AND CORRESPONDING PRODUCTS” (priority 2007, published 2010).

System: Arabidopsis thaliana
Test: Arabidopsis thaliana seedling growth on culture medium containing 1 μM atrazine (atrazine tolerance)
Type: in vivo
Settings: 15 days of incubation
Experimental: In this context, a mixture of sucrose and putrescine were tested. […] For a first control, no carbohydrate or polyamine were added to the culture medium. For a second control, only sucrose, at a rate of 3%, which is equivalent to a concentration of 87 millimolar, was added thereto. Finally, for a test according to the present invention, sucrose, at a rate of 3% and putrescine, at a rate of 3 to 6 mM, were added to the culture medium. The Petri dishes were stored for 48 hrs at 4° C. and transferred to 22° C. for a photoperiod of 16 hours per day at 4500 lux. The parameters characterizing the plant growth were referenced after 15 days of incubation: the biomass (% fresh weight) and chlorophyll (μg/seedling) produced were determined; the development of the main root (cm) and the secondary root system (primordia/seedlings) were recorded.

Compound	effect on atrazine inhibition / atrazine resistance, by size of the seedlings (FIG. 1)	seedling development in the presence of atrazine (FIG. 1) (no carbohydrate or polyamine added)
OC[C@H]1O[C@@](CO)(O[C@H]2O[C@H](CO)[C@@H](O)[C@H](O)[C@H]2O)[C@@H](O)[C@@H]1O [sucrose]	makes it possible to lift the atrazine inhibition effect	–
CCNc1nc(Cl)nc(NC(C)C)n1 [atrazine, 2-chloro-4-ethylamino-6-isopropylamine-1,3,5-triazine]	–	unable to develop the photosynthetic apparatus
